Data set [1] concerns microHeart cells (human induced pluripotent stem cell-derived cardiac cells). Briefly: Survival of irradiated microHeart cells by trypan blue staining. Format: cell-based. As for the experimental part: Cell survival was measured by trypan blue staining. The number of surviving cells 24 hours after irradiation is plotted. […] Cell survival was measured by trypan blue staining. The number of surviving cells 72 hours after irradiation is plotted.
Further studies using genistein were conducted in microHeart cells (StemoniX, Maple Grove, MN) exposed to different types of radiation. […] Cell survival was evaluated 24 hours after radiation exposure. […] Cell survival was evaluated 72 hours after radiation exposure. […] Moreover, since cell death causes the release of pro-inflammatory signals, protecting cells from death may reduce inflammation.

A short description of data set [2]: Solubility in pharmaceutically acceptable solvents. It is filed as physicochemical. Particulars: several pharmaceutically acceptable solvents. An excerpt:
The relative amount of genistein included in such a suspension can be varied to yield a formulation having a desired total content of genistein.

In data set [3] the test system is NF-κB, pro-inflammatory cytokines (IL-1, IL-6, TNFα), pro-fibrotic proteins (TGFβ, MMP-2, MMP-9, LDH). Particulars: literature reports; cited from earlier work.

This is an account of results in US20240058299A1 (Humanetics Corporation, priority 2021, published 2024).

Entries after “also recorded” stand apart in the source; their conditions may differ.

On to `O=c1c(-c2ccc(O)cc2)coc2cc(O)cc(O)c12` [genistein, 5,7-dihydroxy-3-(4-hydroxyphenyl)-4H-chromen-4-one], for which the “killing effect of γ-radiation (cell survival)” value in data set [1] (0.5 μM or 5 μM, 24 hours before 1 Gy γ-radiation, survival 24 hours after irradiation) is on record as “the killing effect was mitigated by genistein; also recorded: Genistein treatment was radioprotective”. Also, in data set [1] (0.5 μM, 24 hours before 1 Gy mixed field radiation (˜32% neutron, −68% gamma), survival 72 hours after irradiation), the “killing effect of mixed field radiation (cell survival)” value is “the killing effect was again mitigated by genistein; also recorded: genistein was radioprotective”. Besides, the solubility result in data set [2] is given as “low to virtually no solubility”. In data set [3], the “expression of NF-κB, pro-inflammatory cytokines and pro-fibrotic proteins” value is “reduce expression”.
